Reference: patent US7608619B2, “Substituted oxazole compounds with analgesic activity” (Gruenenthal GmbH, priority 2005, dated 2009)

Molecular target: T1, human μ-opiate receptor (Homo sapiens, UniProt P35372)
T1 construct: purchased Nen company, Zaventem, Belgium RB-HOM; host or cells: CHO-K1 cells (membrane preparation)
Experiment: Affinity for the human μ-opiate receptor ([3H]-naloxone displacement, SPA, CHO-K1 membrane preparation)
Details: test substance 1 μmole/l; displacement of 1 nmole/l [3H]-naloxone; percentage inhibition of the specific binding; read-out: μ-opioid receptor, % inhibition [1 μM]
In short: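 [3H]-naloxone (1 nmol/l) displacement by SPA with WGA beads, using membranes of CHO-K1 cells expressing the receptor, in 50 mmol/l Tris-HCl with 0.05% azide and 0.06% BSA; 90 min at room temperature. Non-specific binding defined with 25 μmol/l naloxone. Value is % inhibition of specific binding at 1 μmol/l test compound.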

T1 sequence (P35372 whole entry): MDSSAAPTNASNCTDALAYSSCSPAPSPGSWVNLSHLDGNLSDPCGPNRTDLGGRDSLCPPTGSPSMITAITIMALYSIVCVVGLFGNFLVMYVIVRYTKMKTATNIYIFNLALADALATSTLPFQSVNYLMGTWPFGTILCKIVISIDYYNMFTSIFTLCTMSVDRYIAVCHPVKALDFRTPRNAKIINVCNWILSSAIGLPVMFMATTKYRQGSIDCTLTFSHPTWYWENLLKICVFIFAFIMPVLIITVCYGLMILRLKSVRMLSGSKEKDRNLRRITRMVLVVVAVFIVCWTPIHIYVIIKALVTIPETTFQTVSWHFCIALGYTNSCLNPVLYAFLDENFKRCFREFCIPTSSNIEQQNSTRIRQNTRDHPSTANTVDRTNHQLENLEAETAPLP

Compound | inhibition at 1 µM [%]
CN(C)C(c1cccs1)C1CCC(C(c2nc(Cc3ccccc3)c(N3CCN(c4ccccc4)CC3)o2)N2CCCCC2)CC1 (centres unmarked) [compound 26, [(4-{[4-benzyl-5-(4-phenylpiperazin-1-yl)-oxazol-2-yl]-piperidin-1-yl-methyl}-cyclohexyl)-thiophen-2-yl-methyl]-dimethylamine] | 85
CN(C)C(c1ccc(Cl)cc1)C1CCC(CC(c2nc(Cc3ccccc3)c(N3CCN(Cc4ccccc4)CC3)o2)N2CCN(Cc3ccccc3)CC2)CC1 (centres unmarked) [compound 63, [{4-[2-[4-benzyl-5-(4-benzylpiperazin-1-yl)-oxazol-2-yl]-2-(4-benzyl-piperazin-1-yl)-ethyl]-cyclohexyl}-(4-chlorophenyl)-methyl]-dimethylamine] | 78
CCN(CC)C(CC1CCC(C(c2ccc(Cl)cc2)N(C)C)CC1)c1nc(Cc2ccccc2)c(N(C)CCc2ccccc2)o1 (centres unmarked) [compound 89, [4-benzyl-2-(2-{4-[(4-chlorophenyl)-dimethylaminomethyl]-cyclohexyl}-1-diethylaminoethyl)-oxazol-5-yl]-methyl-phenethylamine] | 87
CC1CCN(c2oc(C(CC3CCC(C(c4ccc(Cl)cc4)N(C)C)CC3)N3CCN(Cc4ccccc4)CC3)nc2Cc2ccccc2)CC1 (centres unmarked) [compound 64, [{4-[2-[4-benzyl-5-(4-methylpiperidin-1-yl)-oxazol-2-yl]-2-(4-benzyl-piperazin-1-yl)-ethyl]-cyclohexyl}-(4-chlorophenyl)-methyl]-dimethylamine] | 69
COc1ccc(N2CCN(c3oc(C(C4CCC(C(c5cccs5)N(C)C)CC4)N4CCc5ccccc5C4)nc3Cc3ccccc3)CC2)cc1 (centres unmarked) [compound 147, ({4-[{4-benzyl-5-[4-(4-methoxyphenyl)-piperazin-1-yl]-oxazol-2-yl}-(3,4-dihydro-1H-isoquinolin-2-yl)-methyl]-cyclohexyl}-thiophen-2-yl-methyl)-dimethylamine] | 91
CCN(CC)C(CC1CCC(C(c2ccc(Cl)cc2)N(C)C)CC1)c1nc(Cc2ccccc2)c(N2CC(C)CC(C)C2)o1 (centres unmarked) [compound 88, (1-[4-benzyl-5-(3,5-dimethylpiperidin-1-yl)-oxazol-2-yl]-2-{4-[(4-chlorophenyl)-dimethylaminomethyl]-cyclohexyl}-ethyl)-diethylamine] | 79
CN(C)C(c1ccc(F)cc1)C1CCC(C(c2nc(Cc3ccccc3)c(N3CCOCC3)o2)N(C)c2ccccc2)CC1 (centres unmarked) [compound 18, ((4-benzyl-5-morpholin-4-yl-oxazol-2-yl)-{4-[dimethylamino-(4-fluorophenyl)-methyl]-cyclohexyl}-methyl)-methylphenylamine] | 65
CN(CCc1ccccc1)c1oc(C(CC2CCC(C(c3cccs3)N(C)C)CC2)N2CCCCC2)nc1Cc1ccccc1 (centres unmarked) [compound 108, (4-benzyl-2-{2-[4-(dimethylaminothiophen-2-yl-methyl)-cyclohexyl]-1-piperidin-1-yl-ethyl}-oxazol-5-yl)-methylphenethylamine] | 88
COc1ccc(N2CCN(c3oc(C(C4CCC(C(c5cccs5)N(C)C)CC4)N4CCOCC4)nc3Cc3ccccc3)CC2)cc1 (centres unmarked) [compound 140, {[4-({4-benzyl-5-[4-(4-methoxyphenyl)-piperazin-1-yl]-oxazol-2-yl}-morpholin-4-yl-methyl)-cyclohexyl]-thiophen-2-yl-methyl}-dimethylamine] | 67
COc1ccc(N2CCN(C(c3nc(Cc4ccccc4)c(N4CC(C)OC(C)C4)o3)C3CCC(C(c4ccc(Cl)cc4)N(C)C)CC3)CC2)cc1 (centres unmarked) [compound 136, [(4-{[4-benzyl-5-(2,6-dimethylmorpholin-4-yl)-oxazol-2-yl]-[4-(4-methoxy-phenyl)-piperazin-1-yl]-methyl}-cyclohexyl)-(4-chlorophenyl)-methyl]-dimethylamine] | 62
CN(C)C(c1cccc(F)c1)C1CCC(CC(c2nc(Cc3ccccc3)c(N3CCCC3)o2)N2CCOCC2)CC1 (centres unmarked) [compound 149, [{4-[2-(4-benzyl-5-pyrrolidin-1-yl-oxazol-2-yl)-2-morpholin-4-yl-ethyl]-cyclohexyl}-(3-fluorophenyl)-methyl]-dimethylamine] | 87
CCN(CC)C(CC1CCC(C(c2ccc(F)cc2)N(C)C)CC1)c1nc(Cc2ccccc2)c(N2CCCC(C)C2)o1 (centres unmarked) [compound 100, (1-[4-benzyl-5-(3-methylpiperidin-1-yl)-oxazol-2-yl]-2-{4-[dimethylamino-(4-fluorophenyl)-methyl]-cyclohexyl}-ethyl)-diethylamine] | 86
CC1CC(C)CN(c2oc(C(C3CCC(C(c4cccs4)N(C)C)CC3)N3CCCCC3)nc2Cc2ccccc2)C1 (centres unmarked) [compound 45, [(4-{[4-benzyl-5-(3,5-dimethylpiperidin-1-yl)-oxazol-2-yl]-piperidin-1-yl-methyl}-cyclohexyl)-thiophen-2-yl-methyl]-dimethylamine] | 71
CN(CCc1ccccc1)c1oc(C(CC2CCC(C(c3ccc(Cl)cc3)N(C)C)CC2)N2CCCCC2)nc1Cc1ccccc1 (centres unmarked) [compound 86, [4-benzyl-2-(2-{4-[(4-chlorophenyl)-dimethylaminomethyl]-cyclohexyl}-1-piperidin-1-yl-ethyl)-oxazol-5-yl]-methylphenethylamine] | 63
CCN(CC)c1oc(C(C2CCC(C(c3ccc(F)cc3)N(C)C)CC2)N(CC)CC)nc1Cc1ccccc1 (centres unmarked) [compound 35, [4-benzyl-2-(diethylamino-{4-[dimethylamino-(4-fluorophenyl)-methyl]-cyclohexyl}-methyl)-oxazol-5-yl]-diethylamine] | 61
CN(C)C(c1cccs1)C1CCC(CC(c2nc(Cc3ccccc3)c(N3CCC(Cc4ccccc4)CC3)o2)N2CCN(Cc3ccccc3)CC2)CC1 (centres unmarked) [compound 81, ({4-[2-[4-benzyl-5-(4-benzyl-piperidin-1-yl)-oxazol-2-yl]-2-(4-benzyl-piperazin-1-yl)-ethyl]-cyclohexyl}-thiophen-2-yl-methyl)-dimethylamine] | 81
COc1ccc(N2CCN(c3oc(C(CC4CCC(C(c5cccs5)N(C)C)CC4)N4CCc5ccccc5C4)nc3Cc3ccccc3)CC2)cc1 (centres unmarked) [compound 166, ({4-[2-{4-benzyl-5-[4-(4-methoxy-phenyl)-piperazin-1-yl]-oxazol-2-yl}-2-(3,4-dihydro-1H-isoquinolin-2-yl)-ethyl]-cyclohexyl}-thiophen-2-yl-methyl)-dimethylamine] | 78
CN(Cc1ccccc1)c1oc(C(C2CCC(C(c3cccs3)N(C)C)CC2)N2CCCCC2)nc1Cc1ccccc1 (centres unmarked) [compound 25, Benzyl-(4-benzyl-2-{[4-(dimethylamino-thiophen-2-yl-methyl)-cyclohexyl]-piperidin-1-yl-methyl}-oxazol-5-yl)-methylamine] | 80
CC1CCN(c2oc(C(CC3CCC(C(c4cccs4)N(C)C)CC3)N3CCN(Cc4ccccc4)CC3)nc2Cc2ccccc2)CC1 (centres unmarked) [compound 83, ({4-[2-[4-benzyl-5-(4-methylpiperidin-1-yl)-oxazol-2-yl]-2-(4-benzyl-piperazin-1-yl)-ethyl]-cyclohexyl}-thiophen-2-yl-methyl)-dimethylamine] | 97
CCN(CC)C(CC1CCC(C(c2cccs2)N(C)C)CC1)c1nc(Cc2ccccc2)c(N(C)Cc2ccccc2)o1 (centres unmarked) [compound 80, Benzyl-(4-benzyl-2-{1-diethylamino-2-[4-(dimethylaminothiophen-2-yl-methyl)-cyclohexyl]-ethyl)-oxazol-5-yl)-methylamine] | 93
